# Laboratory results: patent publication US20070059376A1, “Peptide conjugate” (priority 2003, published 2007)
# Groups on a side chain read outwards from the residue. No end group written: not given here. Glu2C18 = not defined here
# Experiments:
# [1] = system: resting platelets; assay: Binding test to resting platelets (flow cytometry aggregation ratio); assay type: cell-based; conditions: resting platelets 2.0×10^4/μl, beads 1.0×10^5/μl, 37° C., 30 min
# Experimental: Resting platelets (2.0×10^4/μl) were mixed with 1.0×10^5/μl of each of LB, H12-LB and CGGRGDF-LB [LB bound with a peptide having an RGD sequence (Arg-Gly-Asp)], followed by shaking (37° C., 30 min), and the aggregation ratio in each case was evaluated by flow cytometry. […] Based on this, it was confirmed that H12-LB hardly agglutinate to resting platelets when compared with CGGRGDF-LB.
# [2] = system: platelets; assay: Aggregation test with platelets, latex beads as carrier: platelet adhesion on collagen-immobilized surface under flow in thrombocytopenia model blood; assay type: cell-based; conditions: after 180 seconds
# Experimental: (§1) A thrombocytopenia model blood was prepared by passing whole blood-through a leukocyte removing filter for leukocyte depleted preparations (NEOIJ, Nihon Pall) by gravity, and adjusting the platelet concentration to 2.0×10^4/μl by adding platelet rich plasma (PRP) (an automatic blood cell counter K-4500, Sysmex, Kobe).
# (§2) H12-LB (1.0×10^5 particles/μl) was added to 5 ml of the thrombocytopenia model blood, allowed to stand (37° C., 10 min), flowed on a collagen-immobilized surface using a pump (rate of shear 150 s^−1), and then observed under a fluorescence microscope or through a CCD camera. An adhesion occupying ratio [surface coverage (hereinafter referred to as “SC”)] of micro particles to each surface was measured using an image analyzer (Argus-50, Hamamatsu Photonics).
# Only platelets were subjected to fluorescence labeling [3,3′-dihexyloxacarbocyanine iodide (DiOC6)], and their adhesion behavior was periodically observed. As a result, SC of platelets on the surface increased with the lapse of time and was 3.1±0.4% after 180 seconds (FIG. 1: □, control). […] Thus, when H12-LB was added instead of LB, the platelet adhesion was further amplified than the case of the LB addition, and was 5.1±0.3% after 180 seconds, or amplified about 1.7 times than the control (FIG. 1: ∘).
# [3] = system: platelets activated by adhering to collagen; assay: Adhesion behavior of FITC-labeled latex beads on collagen-immobilized surface under flow in thrombocytopenia model blood; assay type: cell-based
# Experimental: as §1, §2
# In addition, the number of H12-LB bound to the surface was inhibited when the platelet concentration was 0.2×10^4/μl (FIG. 2: •), and were hardly seen in the case of LB (FIG. 2: □).
# [4] = system: platelets; assay: Aggregation test with platelets, vesicles as carrier: platelet adhesion on collagen surface under flow in thrombocytopenic blood; assay type: cell-based; conditions: for SC of platelets (%): thrombocytopenic blood, platelets 5.0×10^4/μl, collagen surface, shear 150 s^-1, H12-PEG-Glu2C18 0.3 mol %
# Experimental: Platelets were fluorescence-labeled with DiOC6, and the H12-PEG(PEG) vesicle (1.5 wt %, 200 μl) was added to 5 ml of the thrombocytopenic blood ([platelets]=5.0×10^4/μl), allowed to stand (37° C., 10 min), allowed to flow on the collagen surface at a rate of shear of 150 s^−1, and then observed under a fluorescence microscope. The SC of platelets on the surface was analyzed by Argus-20. When H12-PEG vesicle (H12-PEG-Glu2C18: 0.3 mol %) or PEG vesicle was added to the thrombocytopenic blood ([platelets]=5.0×10^4/μl) and allowed to flow on the collagen surface, the SC was increased in the H12-PEG vesicle-added system, in comparison with the PEG vesicle-added system (Table 1).
# [5] = Retention of H12-PEG-Glu2C18 in phospholipid vesicles (1H-NMR molar ratio after shaking); assay type: physicochemical; conditions: diluted 30 times with PBS, shaken at 37° C. for 12 hours
# Experimental: In this connection, the prepared phospholipid vesicles (H12-PEG vesicles, 1.8 wt %) were diluted 30 times with PBS and shaken at 37° C. for 12 hours, and then the vesicles were precipitated by centrifugation (33000 rpm, 1 h) and dispersed, followed by freeze drying, and the resulting powder was subjected to ^1H-NMR measurement.
# [6] = system: platelets; assay: Interaction with platelets, vesicles as carrier (flow cytometry, PAC-1 and vesicle binding); assay type: cell-based; conditions: thrombocytopenia plasma, platelets 5.0×10^4/μl, 30 min, 37° C.
# Experimental: After 80 μl of thrombocytopenia plasma ([platelets]=5.0×10^4/μl) was prepared, fluorescence-labeled H12-PEG(PEG) vesicles (8.2 μM, 20 μl) or a fluorescence-labeled antibody and H12-PEG(PEG) vesicles (0.082 μM, 20 μl) were added thereto, followed by stirring (30 min, 37° C.). The mixture was subsequently subjected to formaldehyde (3.7%) fixation, diluted 10 times and then measured using flow cytometry.
# [7] = target: T1, GPIIb/IIIa on resting platelets (UniProt P08514 32-1039; P05106 27-788, limits assumed); assay: flow cytometry, fluorescence-labeled antibody on platelets, PBS added
# T1 construct: whole, on cells; also called resting GPIIb/IIIa; normal platelets
# T1 sequence (P08514 32-1039 limits assumed, chain 1 of 2): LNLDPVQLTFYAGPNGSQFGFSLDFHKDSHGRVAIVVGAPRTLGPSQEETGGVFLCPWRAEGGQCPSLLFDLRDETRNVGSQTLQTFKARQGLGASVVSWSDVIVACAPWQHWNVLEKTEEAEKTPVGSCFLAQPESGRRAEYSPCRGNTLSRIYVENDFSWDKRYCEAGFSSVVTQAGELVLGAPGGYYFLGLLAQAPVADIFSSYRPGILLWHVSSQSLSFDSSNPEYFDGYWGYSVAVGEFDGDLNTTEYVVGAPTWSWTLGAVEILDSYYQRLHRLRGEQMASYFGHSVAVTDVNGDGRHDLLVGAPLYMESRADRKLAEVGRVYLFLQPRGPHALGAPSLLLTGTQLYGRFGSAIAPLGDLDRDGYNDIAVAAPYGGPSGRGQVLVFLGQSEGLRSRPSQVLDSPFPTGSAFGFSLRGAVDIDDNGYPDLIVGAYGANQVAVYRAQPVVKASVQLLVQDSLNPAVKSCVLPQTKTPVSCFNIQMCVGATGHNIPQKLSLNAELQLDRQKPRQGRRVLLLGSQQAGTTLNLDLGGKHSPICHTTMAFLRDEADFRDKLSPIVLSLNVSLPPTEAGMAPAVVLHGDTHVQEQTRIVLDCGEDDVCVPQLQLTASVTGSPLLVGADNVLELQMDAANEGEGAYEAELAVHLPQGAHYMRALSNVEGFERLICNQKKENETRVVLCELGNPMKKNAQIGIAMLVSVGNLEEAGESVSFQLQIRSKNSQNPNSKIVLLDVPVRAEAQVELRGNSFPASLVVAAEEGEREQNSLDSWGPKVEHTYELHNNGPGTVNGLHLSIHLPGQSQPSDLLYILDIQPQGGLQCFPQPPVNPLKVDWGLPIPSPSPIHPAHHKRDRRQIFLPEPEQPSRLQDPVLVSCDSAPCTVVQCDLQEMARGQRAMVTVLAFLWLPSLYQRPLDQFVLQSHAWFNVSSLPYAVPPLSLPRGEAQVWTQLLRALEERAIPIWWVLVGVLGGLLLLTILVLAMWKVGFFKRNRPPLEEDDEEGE
# T1 sequence (P05106 27-788 limits assumed, chain 2 of 2): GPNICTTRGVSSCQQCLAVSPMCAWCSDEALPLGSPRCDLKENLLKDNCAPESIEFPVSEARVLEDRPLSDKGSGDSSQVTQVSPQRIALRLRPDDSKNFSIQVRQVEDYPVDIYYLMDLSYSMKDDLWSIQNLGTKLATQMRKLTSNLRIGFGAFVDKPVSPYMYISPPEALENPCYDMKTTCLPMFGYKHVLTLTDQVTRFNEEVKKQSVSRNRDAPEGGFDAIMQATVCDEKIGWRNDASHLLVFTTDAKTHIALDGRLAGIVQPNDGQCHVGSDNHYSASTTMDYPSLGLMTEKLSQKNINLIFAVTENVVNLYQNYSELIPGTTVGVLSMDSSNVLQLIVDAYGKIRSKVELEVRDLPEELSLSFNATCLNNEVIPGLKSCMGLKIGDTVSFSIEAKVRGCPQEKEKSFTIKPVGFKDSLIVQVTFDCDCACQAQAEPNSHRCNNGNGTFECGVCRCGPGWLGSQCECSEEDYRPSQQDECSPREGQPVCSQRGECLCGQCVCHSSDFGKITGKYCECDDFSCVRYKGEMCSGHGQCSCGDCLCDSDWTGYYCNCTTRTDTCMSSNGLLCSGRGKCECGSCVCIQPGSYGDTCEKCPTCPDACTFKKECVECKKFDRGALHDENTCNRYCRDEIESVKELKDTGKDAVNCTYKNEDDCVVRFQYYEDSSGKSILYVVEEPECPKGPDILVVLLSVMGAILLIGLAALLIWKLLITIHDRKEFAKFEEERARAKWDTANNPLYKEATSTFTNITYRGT
# [8] = target: T1, GPIIb/IIIa on resting platelets; assay: flow cytometry, fluorescence-labeled antibody on platelets, PEG vesicles added
# [9] = target: T1, GPIIb/IIIa on resting platelets; assay: flow cytometry, fluorescence-labeled antibody on platelets, H12-PEG(PEG) vesicles added
# [10] = target: T1, GPIIb/IIIa on resting platelets; assay: flow cytometry, beads (1.0×10^5/µl) mixed with resting platelets (2.0×10^4/µl), 37° C., 30 min
# Experimental: Resting platelets (2.0×10⁴/μl) were mixed with 1.0×10⁵/μl of each of LB, H12-LB and CGGRGDF-LB [LB bound with a peptide having an RGD sequence (Arg-Gly-Asp)], followed by shaking (37° C., 30 min), and the aggregation ratio in each case was evaluated by flow cytometry. […] Based on this, it was confirmed that H12-LB hardly agglutinate to resting platelets when compared with CGGRGDF-LB.
molecule,measurement,setting,value
CGGRGDF-LB: LB bound with a peptide having an RGD sequence (Arg-Gly-Asp) (also: bound to latex beads (LB)) [reference compound],aggregation ratio with resting platelets,[1],2.9 ± 1.3%
"H12-LB: Dodecapeptide H12 (SEQ ID NO: 1, via Cys and SPDP linker) coupled to rHSA-adsorbed latex beads of 1 μm diameter (CHHLGGAKQAGDV; cyclised or stapled)",amplification of platelet adhesion versus control (LB),[2],about 1.7 times
same,SC (surface coverage) of platelets on collagen surface,"[2]; shear 150 s^-1, platelets 2.0×10^4/μl, beads 1.0×10^5 particles/μl, DiOC6-labeled platelets",5.1±0.3%
same,number of beads bound to collagen surface,[3]; platelet concentration 0.2×10^4/μl (FIG. 2),inhibited
same,SC of FITC-labeled beads bound to collagen surface,"[3]; platelets 2.0×10^4/μl, shear 150 s^-1 (FIG. 2)",gradually increased
same,aggregation ratio with resting platelets,[1],did not show increase
H12-PEG vesicle: DPPC/cholesterol vesicle containing H12-PEG-Glu2C18 alone (C([MAL‑PEG3400-Glu2C18])HHLGGAKQAGDV-OH; not fully specified; reading uncertain),SC of platelets (%),[4],15.0 ± 5.0%
same,"stability: retention of H12-PEG-Glu2C18 in vesicles (molar ratio of DPPC, cholesterol and H12-PEG-Glu2C18)",[5],not released from the phospholipid vesicles but stably maintained
H12-PEG(PEG) vesicle: DPPC/cholesterol vesicle containing PEG-Glu2C18 and H12-PEG-Glu2C18 (CHHLGGAKQAGDV-OH; not fully specified (residue 1)),SC of platelets on collagen surface,[4]; H12-PEG-Glu2C18 modification ratio 0.1 mol % or less (FIG. 6),almost the same as the case of PEG vesicle
same,SC of platelets on collagen surface,[4]; H12-PEG-Glu2C18 modification ratio 0.3 mol % or more (FIG. 6),the effect appears
same,SC of platelets (%),[4],17.3 ± 1.9%
same,PAC-1 binding (%),[6]; fluorescence-labeled antibody with vesicles,3.7 ± 0.4%
same,vesicle binding (%),[6]; fluorescence-labeled vesicles,1.4 ± 0.6%
PAC-1 (antibody),PAC-1 binding (%),[7],3.8%
same,PAC-1 binding (%),[8],3.4%
same,PAC-1 binding (%),[9],3.7%
"CGGRGDF (also: bound to latex beads, coupling chemistry not described, Comparison conjugate) [CGGRGDF-LB [LB bound with a peptide having an RGD sequence (Arg-Gly-Asp)]]",aggregation ratio,[10],2.9%
